Fluorescence lifetime data for 53 compounds are collected here from the Deep4Chem optical property database.

A short description of this data set: solvent given as SMILES.
The mark [1] stands for this setting: in O=P(c1ccccc1)(c1ccccc1)c1ccc2oc3ccc(P(=O)(c4ccccc4)c4ccccc4)cc3c2c1.
The mark [2] stands for this setting: in O=P(c1ccccc1)(c1ccccc1)c1ccccc1Oc1ccccc1P(=O)(c1ccccc1)c1ccccc1.

“And” between values parts separate entries of the source, which are not always exact repeats. Equal entries are not always repeated.

For `c1ccc(N(c2ccccc2)c2cc3c4c(c2)N(c2ccccc2)c2cc5c(cc2B4c2ccccc2N3c2ccccc2)B2c3ccccc3N(c3ccccc3)c3cc(N(c4ccccc4)c4ccccc4)cc(c32)N5c2ccccc2)cc1`, the fluorescence lifetime (in Cc1ccccc1-c1cccc(Oc2cc3c4c(c2)Oc2cc(-c5ccccc5C)ccc2B4c2ccc(-c4ccccc4C)cc2O3)c1) turned out to be 4.1 ns. `COc1ccc(C2=C(c3ccc(OC)cc3)[Si](c3ccccc3)(c3ccccc3)c3ccccc32)cc1` returned a fluorescence lifetime (in C1CCOC1) of 1.37 ns. `N#Cc1cc(C#N)cc(-n2c3ccccc3c3cc(-c4ccc5c(c4)c4ccccc4n5-c4cc(C#N)cc(C#N)c4)ccc32)c1`: the fluorescence lifetime (in Cc1ccccc1) worked out at 24 ns.

On to `C[Si](C)(C)C#CC(C#C[Si](C)(C)C)=Cc1ccc(C=C(C#C[Si](C)(C)C)C#C[Si](C)(C)C)s1`, for which the fluorescence lifetime (in ClC(Cl)Cl) is 0.3 ns. With `[C-]#[N+]c1ccc(-c2ccc(N)cc2)cc1`, the fluorescence lifetime was 2 ns (in CC#N) and 1.7 ns (in CCOC(C)=O).

On to `CCN(CC)c1ccc2c(-c3ccccc3C(=O)[O-])c3ccc(=[N+](CC)CC)cc-3oc2c1`, for which the fluorescence lifetime came out at 1.74 ns (in CC#N); 3.26 ns (in CC(C)O); 3.42 ns (in CCCCCCCCO); 3.41 ns (in CCCCCCO); 3.37 ns (in CCCCO); 3.27 ns (in CCCO). Also, the fluorescence lifetime by setting is: (in CCO) 2.96 ns; (in CN(C)C=O) 2.33 ns; (in CO) 2.5 ns and 2.46 ns; (in O) 1.74 ns and 1.75 ns; (in [2H]O[2H]) 1.84 ns. Turning to `COc1ccc(-c2oc3cccc4c5c(-c6ccc(OC)cc6)c(=N)oc6cccc(c2c34)c65)cc1`, under “in ClC(Cl)Cl”, the fluorescence lifetime worked out at 1.5 ns. In turn, `CC(C)(C)c1ccc(C2=C(c3ccc(N4c5ccccc5C(C)(C)c5ccccc54)cc3)S(=O)(=O)c3c2sc(-c2ccc(N4c5ccccc5C(C)(C)c5ccccc54)cc2)c3-c2ccc(C(C)(C)C)cc2)cc1` displayed a fluorescence lifetime (in C1CCOC1) of 1.61 ns.

Take `CC1(C)CC(/C=C/c2ccc(-n3ccnc3)cc2)=CC(=C(C#N)C#N)C1`: the fluorescence lifetime (in CCO) was found to be 0.03 ns. `CCOC(=O)c1c(CSc2ccccc2)n(C)c2cc(Br)c(O)c(CN(C)C)c12` registered a fluorescence lifetime (in O) of 3 ns. Compound `Cc1c(C(=O)c2ccc(C(F)(F)F)cc2)c2ccc3cccc4c5cccc6ccc1c(c65)c2c34` showed a fluorescence lifetime (in ClCCl) of 1.39 ns.

Regarding `O=[N+]([O-])c1ccc(O)c(-c2nc3c(c4c2-c2ccccc2CC4)-c2ccccc2CC3)c1`, the fluorescence lifetime (in ClCCl) is 0.45 ns. Consider `CC(C)(C)NS(=O)(=O)c1ccc2c(c1)C(=O)/C(=C1\Sc3ccc(S(=O)(=O)NC(C)(C)C)cc3C1=O)S2`, for which the fluorescence lifetime came to 12.4 ns (in C1COCCO1), 8.33 ns (in CN(C)C=O) and 0.07 ns (in CS(C)=O). Take `N#Cc1ccc(/C=C/c2ccc3ccc4cccc5ccc2c3c45)cc1`: the fluorescence lifetime by setting is: (in C1CCOC1) 1.82 ns; (in CC1CCCCC1) 2.05 ns; (in CC#N) 1.68 ns; (in CO) 1.6 ns; (in Cc1ccccc1) 1.76 ns; (in ClC(Cl)Cl) 1.53 ns. For the compound `Cc1cc(C)c2c(c1)c1cc(C)cc(C)c1n2-c1ccc2c(c1)Oc1cc3c(cc1B2c1c(C(C)C)cc(C(C)C)cc1C(C)C)B(c1c(C(C)C)cc(C(C)C)cc1C(C)C)c1ccccc1O3`, the fluorescence lifetime by setting is: (in Cc1ccccc1) 21 ns; under setting [1], 25 ns.

In turn, `CC(C)(C)c1ccc(Oc2cc3c4c(cc(Oc5ccc(C(C)(C)C)cc5)c5c6c(Oc7ccc(C(C)(C)C)cc7)cc7c8c(cc(Oc9ccc(C(C)(C)C)cc9)c(c2c45)c86)C(=O)N(c2ccccc2)C7=O)C(=O)N(c2ccccc2)C3=O)cc1` registered a fluorescence lifetime (in ClC(Cl)Cl) of 6 ns. On the same count and under the same terms, under `CCCCN1C(=O)c2ccc3c4ccc5c6c(ccc(c7ccc(c2c37)C1=O)c64)C(=O)N(CCCC)C5=O` stands 3.8 ns. Under “in ClCCl”, `COc1ccc(C#Cc2c3cc4cc(C)sc4cc3c(C#Cc3ccc(OC)cc3)c3cc4cc(C)sc4cc23)cc1` returned a fluorescence lifetime of 7.7 ns. On the same count and under the same terms, with `Cc1c(C(=O)c2ccccc2)c2ccc3cccc4c5cccc6ccc1c(c65)c2c34` the figure was 2.37 ns.

On to `CCCCCCCCN1c2ccc(C#Cc3ccc(OC)cc3)cc2Sc2cc(C=O)ccc21`, for which the fluorescence lifetime (in C1CCOC1) came out at 7.1 ns; the fluorescence lifetime (in CC#N) stood at 6.03 ns; the fluorescence lifetime (in CCCCCC) was 6.46 ns; the fluorescence lifetime (in CO) came to 5.08 ns; the fluorescence lifetime (in CS(C)=O) came to 6.6 ns; the fluorescence lifetime (in Cc1ccccc1) came out at 7.42 ns. In addition, under “in ClC(Cl)Cl”, the fluorescence lifetime turned out to be 5.65 ns.

Under “in ClCCl”, `COC(=O)c1cc(=O)n(Cc2ccccc2)c2cc(-c3ccc(N(C)C)cc3)sc12` came in with a fluorescence lifetime of 1.86 ns. Consider `c1ccc(-[c+]2c3ccccc3sc3ccccc32)cc1`, for which the fluorescence lifetime (in CC#N) is 1 ns.

In turn, `COc1ccc(-c2c3cc4ccccc4cc3c(C#Cc3ccccc3)c3cc4ccccc4cc23)cc1` registered a fluorescence lifetime (in ClCCl) of 2.2 ns. In turn, `CN(C)C(=O)c1ccc(-c2nc3ccc(N(C)C)cc3s2)cc1` displayed a fluorescence lifetime (in C1CCCCC1) of 2 ns. `C#CCn1c2ccccc2c2cc(/C=C/c3c(Cl)c(C)c4n3[B-](F)(F)[N+]3=C(C)C(Cl)=C(C)C3=C4c3ccc(I)cc3)ccc21` displayed a fluorescence lifetime (in CC#N) of 3.95 ns, a fluorescence lifetime (in CS(C)=O) of 3.06 ns and a fluorescence lifetime (in ClC(Cl)Cl) of 4.24 ns. Where the note is “in ClCCl”, `CCCCn1c(-c2ccc(-c3nnc(-c4ccccc4)o3)cc2)nc2c3ccccc3c3ccccc3c21` yielded a fluorescence lifetime of 1.84 ns. Same read-out and setting: with `CCN(CC)c1ccc2c(c1)oc(=O)c1c(C)nc3c(c(-c4ccccc4)nn3C)c12` the figure was 4.28 ns. Regarding `N#C/C(=C\c1ccc(C(F)(F)F)cc1)c1nc(-c2ccc(Cl)cc2)cs1`, the fluorescence lifetime (in CC#N) stood at 1.2 ns.

For the compound `CCC1(CC)c2cc(/C=C/c3cccs3)ccc2-c2c1c1c(c3c2C(CC)(CC)c2cc(/C=C/c4cccs4)ccc2-3)C(CC)(CC)c2cc(/C=C/c3cccs3)ccc2-1`, the fluorescence lifetime (in C1CCOC1) is 1.6 ns. In turn, `CCCCCCCCCCCCOc1cc2c3c(ccc4c5c(N6CCOCC6)cc6c7c(ccc(c1c34)c75)C(=O)N(C1CCCCC1)C6=O)C(=O)N(C1CCCCC1)C2=O` yielded a fluorescence lifetime (in ClC(Cl)Cl) of 3.4 ns.

`COC(=O)c1cc(=O)n(C)c2cc(-c3ccc(Oc4ccccc4)cc3)sc12` showed a fluorescence lifetime (in ClCCl) of 2.83 ns. For the compound `O=C1c2cc(-c3ccccc3)ccc2-c2ccc(-c3ccccc3)cc21`, the fluorescence lifetime (in C1CCOC1) was found to be 1 ns. As for `C(=C\c1nc2ccccc2s1)/c1ccccc1`, under “in C1CCCCC1”, the fluorescence lifetime is 0.17 ns. `CCCCC(CC)CN1C(=O)c2cc(Oc3ccc(OC)cc3)c3c4c(Oc5ccc(C(C)(C)C)cc5)cc5c6c(cc(Oc7ccc(C(C)(C)C)cc7)c(c7c(Oc8ccc(OC)cc8)cc(c2c37)C1=O)c64)C(=O)N(c1c(C(C)C)cccc1C(C)C)C5=O` (stereo not given): the fluorescence lifetime (in Cc1ccccc1) stood at 5.32 ns. As for `CCN(CC)c1ccc(/C=N/Nc2ccc(C#N)cc2)c(O)c1`, under “in CO”, the fluorescence lifetime was determined as 1.63 ns.

`CC(C)(C)c1cc(C(C)(C)C)c(-c2nnc(-c3ccc(-n4c5ccccc5c5ccccc54)cc3)o2)c(C(C)(C)C)c1` came in with a fluorescence lifetime (in CCO) of 2.25 ns. `C(=C\c1ccc(Nc2ccccc2)cc1)/c1ccccc1` returned a fluorescence lifetime (in CC#N) of 0.39 ns and a fluorescence lifetime (in CCCCCC) of 0.34 ns.

As for `c1ccc(-c2cc(-c3ccc(N4c5ccccc5C(c5ccccc5)(c5ccccc5)c5ccccc54)cn3)nc(-c3ccccc3)n2)cc1`, the fluorescence lifetime under setting [2] is 13.3 ns. Consider `COc1cc(C(=O)c2c(C)c3ccc4cccc5c6cccc7ccc2c(c76)c3c45)cc(OC)c1OC`, for which the fluorescence lifetime (in ClCCl) came to 1.35 ns. In the case of `Cc1ccc(C2=C3C=C(I)C=[N+]3[B-](F)(F)n3c2cc(I)c3I)cc1`, the fluorescence lifetime is, setting by setting: (in C1CCCCC1) 0.327 ns; (in CC#N) 0.142 ns; (in CCO) 0.196 ns; (in CCOC(C)=O) 0.207 ns; (in CO) 0.179 ns; (in OCC(F)(F)F) 0.185 ns.

On to `CN(C)c1ccc2nc(-c3ccc(/C=N/Nc4ccccc4)cc3)sc2c1`, for which the fluorescence lifetime (in C1CCCCC1) is 2 ns. `Cc1nnc(-c2cc(-c3nnc(C)o3)c(-n3c4ccccc4c4ccccc43)cc2-n2c3ccccc3c3ccccc32)o1`: the fluorescence lifetime was 6.5 ns (in Cc1ccccc1) and 8.5 ns under setting [2]. For the setting “in c1ccccc1”, `Cc1nc2c(ccc3ccccc32)oc1=O` came in with a fluorescence lifetime of 1.5 ns. `N#Cc1ccc(-n2c(-c3ccc(-c4ccc(-n5c6ccccc6c6ccccc65)cc4)s3)nc3c4ccccc4c4ccccc4c32)c2ccccc12` came in with a fluorescence lifetime (in ClCCl) of 4.3 ns.

`C(=C\c1cc(-c2ccccc2)c(/C=C/c2ccc(N(c3ccccc3)c3ccccc3)cc2)cc1-c1ccccc1)/c1ccc(N(c2ccccc2)c2ccccc2)cc1`: the fluorescence lifetime (in ClCCl) turned out to be 1.29 ns. In turn, `CCCCCCCCCCCCCCCCCCN1C(=O)c2ccc3c4ccc5c6c(ccc(c7ccc(c2c37)C1=O)c64)C(=O)NC5=O` gave a fluorescence lifetime (in CN(C)C=O) of 3 ns. As for `Nc1cccc2c1C(=O)c1ccccc1-2`, the fluorescence lifetime by setting is: (in C1CCCCC1) 0.8 ns; (in CC#N) 2.3 ns; (in c1ccccc1) 1.4 ns. As to `O=C1c2ccc(N(c3ccc(-c4ccccc4)cc3)c3ccc(-c4ccccc4)cc3)cc2C(=O)c2ccc(N(c3ccc(-c4ccccc4)cc3)c3ccc(-c4ccccc4)cc3)cc21`, the fluorescence lifetime is, setting by setting: (in Cc1ccccc1) 3.5 ns; (in c1ccc2c(c1)c1ccccc1n2-c1ccc(-c2ccc(-n3c4ccccc4c4ccccc43)cc2)cc1) 5.6 ns. Consider `O=c1[nH]cc(F)c(=O)[nH]1`, for which, under “in CC#N”, the fluorescence lifetime was determined as 0.0004 ns. As to `c1ccc(-c2nc(-c3ccccc3)nc(-c3cc(-n4c5ccccc5c5ncccc54)cc(-n4c5ccccc5c5ncccc54)c3)n2)cc1`, the fluorescence lifetime under setting [1] was determined as 6.6 ns. Turning to `COc1ccc(C2=C(c3ccc(-c4ccccc4)cc3)C(c3ccccc3)=[N+]3C2=Nc2c(-c4ccc(OC)cc4)c(-c4ccc(-c5ccccc5)cc4)c(-c4ccccc4)n2[B-]3(F)F)cc1`, the fluorescence lifetime (in Cc1ccccc1) stood at 0.14 ns. `Cc1ccc(C2=C3C=CC4=[N+]3[P-](=O)(=O)n3c2ccc3-c2ccc([nH]2)/C(c2ccc(C)cc2)=c2/cc/c(o2)=C(\c2ccc(C)cc2)c2ccc4[nH]2)cc1` had a fluorescence lifetime (in ClC(Cl)Cl) of 4.3 ns.

For the compound `CCCCCCn1c2cc(/C=C(\C#N)c3cccs3)ccc2c2ccc(/C=C(\C#N)c3cccs3)cc21`, the fluorescence lifetime (in ClC(Cl)Cl) came to 0.56 ns.
